Results reported in patent US12391641B2, “Prostaglandin EP4 receptor antagonist compounds” (NXERA PHARMA UK LIMITED, priority 2019, dated 2025).

Biological target: T1, Human prostaglandin E2 receptor 4 (EP4) (Homo sapiens, UniProt P35408)
T1 construct: expressed in transfected cells; host or cells: HEK293 cells transduced with EP4 BacMam virus
Assay: cAMP Gs Functional Assay (HTRF cAMP dynamic-2), antagonism of PGE2
Assay type: cell-based
Settings: HEK293 cells transfected with EP4 BacMam virus; PGE2 challenge at EC80 (7 nM); pIC50 converted to functional pKb with a modified Cheng Prussoff equation; read-out: Human EP4 fpKb (converted)
Protocol: Cloning, Baculovirus generation, large scale infection of HEK293 cells and membrane preparation: Human prostaglandin E2 receptor 4 (EP4) was cloned into pBacMam expression vector (GeneScript, UK). Transposition of EP4 DNA was performed using Invitrogen's Bac-to-Bac Baculovirus Expression Systems. P0 baculovirus was generated by transfecting SF9 Cells with bacmid DNA using Cellfectin II transfection reagent (ThermoFisher Scientific, UK, catalog number 10362-100). Following P0 generation P1 virus was then generated ready for large scale infection and membrane preparation. HEK293 cells were grown in DMEM+Glutamax, supplemented with 10% heat inactivated fetal bovine serum (FBS). Cells were infected at a seeding density of 3.5 million cells/mL in 500 cm^3 flasks at 5% v/v EP4 Bacman. Expression was carried out over 36 hr period at 37° C. with 5% CO2. The cells were removed using PBS and a cell scrapper. The cell culture was centrifuged at 2500 RPM for 10 mins at 4° C. The supernatant was then poured off and the pellet stored at −80° C. The pellet was defrosted and re-suspended in 15 mL of homogenising buffer (20 mM HEPES, 10 mM EDTA, pH 7.4). Then homogenised in mechanical homogeniser (VMR) for 10 seconds. The membrane was centrifuged in centrifuge tubes at 40,000 g for 15 mins at 4° C. The supernatant was poured away and re-suspended in 15 mL of homogenising buffer. Homogenised for 20 seconds. The membrane was centrifuged at 40,000 g for 45 mins at 4° C. The membrane was re-suspended in 3 mL of storage buffer (20 mM HEPES, 0.1 mM EDTA, pH 7.4) mixing well. The resulting membranes were then stored at −80° C.
cAMP Gs Functional Assay: cAMP production following EP4 receptor activation was determined using the Homogeneous Time-Resolved Fluorescence (HTRF) cAMP dynamic-2 assay (Cisbio, France). HEK293 cells were transfected using a 0.5% EP4 Bacman virus for 36 hours, before dissociating the cells, and freezing at […].
On the day of testing, increasing concentration of test compounds, alongside positive controls (1 uM ONO-AE3-208) and negative control (DMSO (Sigma-Aldrich, UK) were added to a ProxiPlate-384 Plus, White 384-shallow well Mircoplate, (PerkinElmer, USA) using the ECHO dispense.
Cells were defrosted in a water bath and resuspended in DMEM supplemented with 10% FBS before centrifuging at 1200 RPM for 5 mins to form a pellet. The pellet was resuspended in assay buffer (DMEM+0.5 mM IBMX (Tocris, Abingdon, UK, Catalog Number 2845)) to a 1×10^6 cells/mL. Cell suspension, for a final assay concentration of 5000 cell/well was added using the multidrop to the pre-dispensed assay plate. The plate was then incubated at 37° C. for 30 mins, with 5% CO2. After incubation, EC80 concentration (7 nM) of PGE2 (EP4 agonist) was added to the plate. In parallel, a PGE2 dose-response curve was dispense to a separate plate. Assay buffer was then dispensed on top. The cAMP production was determined as manufacturer's instructions, before plates were read on a PheraStar fluorescence plate reader (BMG LabTech, Germany).
The pIC50 was converted to a functional pKb value using a modified Cheng Prussoff equation where Kd=agonist EC50 and Lhot=agonist challenge concentration;

T1 sequence (P35408 whole entry): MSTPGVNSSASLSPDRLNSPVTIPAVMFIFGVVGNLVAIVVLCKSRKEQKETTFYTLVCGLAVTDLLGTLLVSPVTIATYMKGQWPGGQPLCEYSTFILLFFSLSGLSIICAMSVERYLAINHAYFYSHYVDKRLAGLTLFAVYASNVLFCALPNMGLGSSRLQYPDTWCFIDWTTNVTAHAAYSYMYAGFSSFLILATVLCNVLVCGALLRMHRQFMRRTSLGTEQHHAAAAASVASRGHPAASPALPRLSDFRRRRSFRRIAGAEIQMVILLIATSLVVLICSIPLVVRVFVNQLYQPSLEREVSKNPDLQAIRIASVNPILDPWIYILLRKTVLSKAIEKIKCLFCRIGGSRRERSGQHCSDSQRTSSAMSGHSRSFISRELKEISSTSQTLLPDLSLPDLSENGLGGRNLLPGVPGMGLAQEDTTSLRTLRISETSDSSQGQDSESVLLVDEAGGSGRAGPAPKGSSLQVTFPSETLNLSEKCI

| Structure (SMILES) | Ki |
| --- | --- |
| CC(C)[C@@H](OCc1cccc(OC(F)F)c1)C(=O)N[C@@H](C)c1ccc(C(=O)O)cc1 [Example 24, 4-((S)-1-((R)-2-((3-(difluoromethoxy)benzyl)oxy)-3-methylbutanamido)ethyl)benzoic acid] | 0.302 nM |
| CC(C)[C@@H](OCc1ccn2ccnc2c1)C(=O)N[C@@H](C)c1ccc(C(=O)O)cc1 [Example 66, 4-((S)-1-((R)-2-(imidazo[1,2-a]pyridin-7-ylmethoxy)-3-methylbutanamido)ethyl)benzoic acid] | 34.7 nM |
| CC(C)[C@H](OCc1ccc(F)cc1)C(=O)N[C@@H](C)c1ccc(C(=O)O)cc1 [Example 4, 4-((S)-1-((S)-2-((4-fluorobenzyl)oxy)-3-methylbutanamido)ethyl)benzoic acid] | > 195 nM |
| CC(C)[C@@H](OCc1ccc2c(c1)OC(F)(F)O2)C(=O)NC1(c2ccc(C(=O)O)cc2)CC1 [Example 55, (R)-4-(1-(2-((2,2-difluorobenzo[d][1,3]dioxol-5-yl)methoxy)-3-methylbutanamido)cyclopropyl)benzoic acid] | 0.479 nM |
| COc1cccc(COC(C(=O)N[C@@H](C)c2ccc(C(=O)O)cc2)C(C)C)c1 (mixture of isomers) [Example 3, 4-((1S)-1-(2-((3-methoxybenzyl)oxy)-3-methylbutanamido)ethyl)benzoic acid] | > 67.6 nM |
| CC(C)[C@@H](OCc1ccc(Cl)c(F)c1)C(=O)NC1(c2ccc(C(=O)O)cc2)CC1 [Example 79] | 2.45 nM |
| C[C@H](NC(=O)C(OCc1ccc(C(F)(F)F)cc1)C1CCC1)c1ccc(C(=O)O)cc1 (single isomer, unassigned) [Example 94] | 5.01 nM |
| CC(C)[C@@H](OCc1cccc(C2CC2)c1)C(=O)N[C@@H](C)c1ccc(-c2nnn[nH]2)cc1 [Example 83, (R)—N—((S)-1-(4-(1H-tetrazol-5-yl)phenyl)ethyl)-2-((3-cyclopropylbenzyl)oxy)-3-methylbutanamide] | 0.186 nM |
| CC(C)[C@@H](OCc1ccc(F)cc1)C(=O)NC1(c2ccc(-c3nnn[nH]3)cc2)CC1 [Example 70, (R)—N-(1-(4-(1H-tetrazol-5-yl)phenyl)cyclopropyl)-2-((4-fluorobenzyl)oxy)-3-methylbutanamide] | 6.92 nM |
| CC(C)[C@@H](OCc1ccc(F)c(OC(F)F)c1)C(=O)NC1(c2ccc(C(=O)O)cc2)CC1 [Example 57, (R)-4-(1-(2-((3-(difluoromethoxy)-4-fluorobenzyl)oxy)-3-methylbutanamido)cyclopropyl)benzoic acid] | 0.372 nM |
| CC(C)[C@@H](OCc1ccc2c(c1)OC(F)(F)O2)C(=O)N[C@@H](C)c1ccc(C(=O)O)cc1 [Example 28, 4-((S)-1-((R)-2-((2,2-difluorobenzo[d][1,3]dioxol-5-yl)methoxy)-3-methylbutanamido)ethyl)benzoic acid] | 0.151 nM |
| CC(C)[C@@H](OCc1ccc(C(F)(F)F)cc1)C(=O)NC1(c2ccc(C(=O)O)cc2)CCC1 [Example 73, (R)-4-(1-(3-methyl-2-((4-(trifluoromethyl)benzyl)oxy)butanamido)cyclobutyl)benzoic acid] | 182 nM |
| CC(C)C(OCc1cccc(C2COC2)c1)C(=O)N[C@@H](C)c1ccc(C(=O)O)cc1 (single isomer, unassigned) [Example 48] | 141 nM |
| O=C(O)c1ccc(C2(NC(=O)[C@H](OCc3cccc(OC(F)F)c3)C3CCC3)CC2)cc1 [Example 101, (R)-4-(1-(2-cyclobutyl-2-((3-(difluoromethoxy)benzyl)oxy)acetamido)cyclopropyl)benzoic acid] | 0.851 nM |
| CC(C)[C@@H](OCc1cccc(C(F)F)c1)C(=O)N[C@@H](C)c1ccc(C(=O)O)cc1 [Example 14, 4-((S)-1-((R)-2-((3-(difluoromethyl)benzyl)oxy)-3-methylbutanamido)ethyl)benzoic acid] | 1.82 nM |
| CC(C)[C@@H](OCc1ccccc1)C(=O)N[C@@H](C)c1ccc(C(=O)O)cc1 [Example 19, 4-((S)-1-((R)-2-(benzyloxy)-3-methylbutanamido)ethyl)benzoic acid] | 12.9 nM |
| CC(C)[C@@H](OCc1ccc(F)c(F)c1)C(=O)N[C@@H](C)c1ccc(C(=O)O)cc1 [Example 27, 4-((S)-1-((R)-2-((3,4-difluorobenzyl)oxy)-3-methylbutanamido)ethyl)benzoic acid] | 1.91 nM |
| CC(C)[C@@H](OCc1cccc(C#N)c1)C(=O)NC1(c2ccc(C(=O)O)cc2)CC1 [Example 54, (R)-4-(1-(2-((3-cyanobenzyl)oxy)-3-methylbutanamido)cyclopropyl)benzoic acid] | > 12900 nM |
| CC(C)[C@@H](OCc1cccc(O)c1)C(=O)N[C@@H](C)c1ccc(C(=O)O)cc1 [Example 38, 4-((S)-1-((R)-2-((3-hydroxybenzyl)oxy)-3-methylbutanamido)ethyl)benzoic acid] | > 4680 nM |
| CC(C)[C@@H](OCc1cccc(OC(F)(F)F)c1)C(=O)N[C@@H](C)c1ccc(C(=O)O)cc1 [Example 20, 4-((S)-1-((R)-3-methyl-2-((3-(trifluoromethoxy)benzyl)oxy)butanamido)ethyl)benzoic acid] | 0.0955 nM |
| CC(C)[C@@H](OCc1cccc(Cl)c1)C(=O)NC1(c2ccc(C(=O)O)cc2)CC1 [Example 50, (R)-4-(1-(2-((3-chlorobenzyl)oxy)-3-methylbutanamido)cyclopropyl)benzoic acid] | > 12900 nM |
| CC(O[C@@H](C(=O)N[C@@H](C)c1ccc(C(=O)O)cc1)C(C)C)c1ccc(C(F)(F)F)cc1 (mixture of isomers) [Example 51, 4-((1S)-1-((2R)-3-methyl-2-(1-(4-(trifluoromethyl)phenyl)ethoxy)butanamido)ethyl)benzoic acid] | 417 nM |
| CC(C)[C@@H](OCc1ccc(F)cc1)C(=O)N[C@@H](C)c1ccc(-c2nnn[nH]2)cc1 [Example 42, (R)—N—((S)-1-(4-(1H-tetrazol-5-yl)phenyl)ethyl)-2-((4-fluorobenzyl)oxy)-3-methylbutanamide] | 1.74 nM |
| CC(C)[C@@H](OCc1ccc(C(F)F)c(F)c1)C(=O)N[C@@H](C)c1ccc(C(=O)O)cc1 [Example 29, 4-((S)-1-((R)-2-((4-(difluoromethyl)-3-fluorobenzyl)oxy)-3-methylbutanamido)ethyl)benzoic acid] | 0.603 nM |
| CC(C)C(OCc1cccc(C2COC2)c1)C(=O)NC1(c2ccc(C(=O)O)cc2)CC1 (single isomer, unassigned) [Example 87, 4-(1-(3-methyl-2-((3-(oxetan-3-yl)benzyl)oxy)butanamido)cyclopropyl)benzoic acid] | > 603 nM |
| CC(C)[C@@H](OCc1cccc(OC(F)(F)F)c1)C(=O)NC1(c2ccc(C(=O)O)cc2)CC1 [Example 58, (R)-4-(1-(3-methyl-2-((3-(trifluoromethoxy)benzyl)oxy)butanamido)cyclopropyl)benzoic acid] | > 12900 nM |
| CC(C)[C@@H](OCc1ccc(F)cc1)C(=O)NC1(c2ccc(C(=O)O)cc2)CC1 [Example 31, (R)-4-(1-(2-((4-fluorobenzyl)oxy)-3-methylbutanamido)cyclopropyl)benzoic acid] | 2.24 nM |
| CC(C)[C@@H](OCc1cccc(S(C)(=O)=O)c1)C(=O)N[C@@H](C)c1ccc(C(=O)O)cc1 [Example 8, 4-((S)-1-((R)-3-methyl-2-((3-(methylsulfonyl)benzyl)oxy)butanamido)ethyl)benzoic acid] | 8.71 nM |
| CC(C)[C@@H](OCc1ccc(C(F)(F)F)cc1)C(=O)NC1(c2ccc(-c3nnn[nH]3)cc2)CC1 [Example 69, (R)—N-(1-(4-(1H-tetrazol-5-yl)phenyl)cyclopropyl)-3-methyl-2-((4-(trifluoromethyl)benzyl)oxy)butanamide] | 0.955 nM |
| CC(C)[C@@H](OCc1ccc(C(F)F)cc1)C(=O)N[C@@H](C)c1ccc(C(=O)O)cc1 [Example 13, 4-((S)-1-((R)-2-((4-(difluoromethyl)benzyl)oxy)-3-methylbutanamido)ethyl)benzoic acid] | 2.34 nM |
